The results in this text go back to patent US20070185168A1, “Piperidine derivatives” (priority 2004, published 2007).

The structures appear in SMILES notation. Read-outs that look alike come from different tables or passages of the source.

Assay [1] deals with T1, NR2B subunit of the NMDA receptor (Rattus norvegicus, UniProt P35439+Q00960).
T1 construct: The forebrain membrane specimen of male rats of an SD strain; from tissue; host or cells: rat (SD strain, male) forebrain membranes
The assay is described as follows: Antagonistic activity at rat NMDA receptor NR2B subunit: inhibition of [3H]ifenprodil binding to rat forebrain membrane. On the procedure: Antagonistic Activity at Rat NMDA Receptor NR2B Subunit
The forebrain membrane specimen of male rats of an SD strain (final concentration: 250 μg protein/mL), [^3H]-ifenprodil [diluted with an HEPES buffer (20 mmol/L HEPES-KOH and 100 μmol/L trifluoroperazine (pH 7.4)) to give the final concentration of 4 nmol/L] and a test compound (each being diluted with an HEPES buffer to give the final concentration of […]) were mixed, and incubated at 25° C. for 90 minutes shading from light. The above-incubated membrane was recovered to a G/F-B filter using a cell harvester (Brandel; M-24) to stop the reaction. The resulting membrane was further washed with an HEPES buffer for three times, and radioactivity on the filter was measured (Beckman LS 6500). The antagonistic activity of the test compound for an NMDA receptor NR2B subunit was calculated by the following formula as an inhibiting rate for binding of [^3H]ifenprodil to the NR2B subunit of the NMDA receptor. The result is shown in Table 6 in terms of the concentration (IC50 value) of the test compound for 50% inhibition of binding of [^3H]ifenprodil to the NR2B subunit of the NMDA receptor. [formula] Non-specific binding amount: Binding amount of [^3H]ifenprodil in the presence of 10 μmol/L of ifenprodil Total binding amount: Binding amount of [^3H]ifenprodil in the absence of the test compound
Binding amount in the present of test compound: Binding amount of [^3H]ifenprodil in the presence of the test compound in each concentration

Assay [2] relates to strangulated nerve-damaged rats. The experiment in a line: Suppressive effect on neurogenic pain (allodynia, von Frey pain threshold) in strangulated nerve-damaged rats. In kind it is in vivo, rat. The conditions noted are these: male SD rats, orally administered at the dose of 5 and 10 mg/kg, measured 1, 3 and 5 hours after administration. On the procedure:
Suppressive Effect of the Compound to Neurogenic Pain in Strangulated Nerve-damaged Rats
The test was carried out in accordance with a method by G. M. Pitcher, et al. [Pain, 1999,. vol. 83, pages 37 to 46] which is an improvement of a method by T. Mosconi and K. Kruger [Pain, 1996, vol. 64, pages 37 to 57].
Using male rats of an SD strain (Sprague-Dawley rats), strangulated nerve-damaged rats were prepared by removing sciatic nerve under anesthetizing with pentobarbital, and covering with a PE-60 polyethylene tube (trade name: Intramedic; size: PE-60; manufactured by Becton Dickinson) having a length of 2 mm over the removed area. After 14 to 21 days from the preparation, the following test was carried out. Incidentally, a pain threshold (g) was calculated by the following method, and the rats (strangulated rat-damaged rats) showing less than 4 g of a 50% pain threshold were used for the test in which one group comprised six rats. […]
For the measurement of allodynia which is characteristically noted in neurogenic pain, a von Frey filament (trade name: touch test sensory evaluator; catalog number: model 58011) was used and the result is expressed as a pain threshold (g). The pain threshold (g) was calculated by the up-down method by W. J. Dixon [Annual Review of Pharmacology and Toxicology, 1980, vol. […]

Where [3] appears, read: forebrain membrane of male SD rats, 4 nmol/L [3H]-ifenprodil, 25° C., 90 minutes, read-out: IC50, concentration for 50% inhibition of binding of [3H]ifenprodil to the NR2B subunit of the NMDA receptor.

T1 sequence (Q00960 27-1482, other chains not shown): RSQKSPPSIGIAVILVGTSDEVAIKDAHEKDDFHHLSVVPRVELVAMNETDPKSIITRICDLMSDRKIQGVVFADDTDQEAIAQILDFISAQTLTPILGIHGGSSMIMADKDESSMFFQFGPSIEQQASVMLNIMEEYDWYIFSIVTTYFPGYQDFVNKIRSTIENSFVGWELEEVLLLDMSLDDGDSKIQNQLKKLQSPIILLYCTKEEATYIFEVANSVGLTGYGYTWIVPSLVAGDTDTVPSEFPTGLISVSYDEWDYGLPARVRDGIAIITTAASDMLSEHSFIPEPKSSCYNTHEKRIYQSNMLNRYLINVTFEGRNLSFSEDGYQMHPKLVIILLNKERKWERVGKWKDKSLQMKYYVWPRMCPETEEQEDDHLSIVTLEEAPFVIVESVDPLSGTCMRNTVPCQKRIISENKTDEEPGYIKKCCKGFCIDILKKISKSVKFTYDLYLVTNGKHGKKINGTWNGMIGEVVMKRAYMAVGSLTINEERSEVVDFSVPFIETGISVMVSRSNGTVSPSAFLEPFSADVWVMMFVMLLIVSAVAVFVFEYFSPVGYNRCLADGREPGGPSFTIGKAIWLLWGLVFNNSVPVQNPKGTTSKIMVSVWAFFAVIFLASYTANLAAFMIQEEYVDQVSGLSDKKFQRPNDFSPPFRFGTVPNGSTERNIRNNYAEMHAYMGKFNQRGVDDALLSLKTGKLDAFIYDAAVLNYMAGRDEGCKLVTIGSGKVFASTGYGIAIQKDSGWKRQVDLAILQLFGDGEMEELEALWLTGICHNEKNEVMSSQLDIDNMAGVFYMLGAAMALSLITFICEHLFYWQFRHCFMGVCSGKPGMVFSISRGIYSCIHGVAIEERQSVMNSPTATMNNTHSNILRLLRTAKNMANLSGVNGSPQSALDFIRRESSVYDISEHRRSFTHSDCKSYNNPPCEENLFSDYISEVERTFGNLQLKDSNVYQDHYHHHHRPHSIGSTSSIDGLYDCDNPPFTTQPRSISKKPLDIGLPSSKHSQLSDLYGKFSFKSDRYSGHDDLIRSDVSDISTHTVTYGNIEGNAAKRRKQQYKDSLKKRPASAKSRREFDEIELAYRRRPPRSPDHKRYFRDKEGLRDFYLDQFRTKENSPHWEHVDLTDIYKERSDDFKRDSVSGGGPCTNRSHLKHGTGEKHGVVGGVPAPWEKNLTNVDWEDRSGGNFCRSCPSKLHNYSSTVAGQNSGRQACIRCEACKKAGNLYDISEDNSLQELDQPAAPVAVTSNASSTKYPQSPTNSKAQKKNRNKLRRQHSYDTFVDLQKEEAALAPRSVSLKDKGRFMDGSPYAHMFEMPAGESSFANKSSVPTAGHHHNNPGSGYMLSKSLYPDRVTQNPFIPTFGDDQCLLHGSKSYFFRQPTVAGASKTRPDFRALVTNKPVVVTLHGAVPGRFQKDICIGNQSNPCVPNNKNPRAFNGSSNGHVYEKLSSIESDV

Regarding `CC(C(O)c1ccc2[nH]c(=O)sc2c1)N1CCC(O)(c2cccs2)CC1` (racemic) [Compound 1, (±)-threo-6-{1-Hydroxy-2-[4-hydroxy-4-(thiophenee-2-yl)piperidino]propyl}benzothiazol-2(3H)-one], the IC50 in assay [1] turned out to be 2 nM.

`CC(C(O)c1ccc2[nH]c(=O)sc2c1)N1CCC(O)(c2cccs2)CC1` (racemic) [Compound 2, (±)-erythro-6-{1-hydroxy-2-[4-hydroxy-4-thiophenee-2-yl)piperidino]propyl}benzothiazol-2(3H)-one] displayed an IC50 in assay [1] of 4.1 nM.

Regarding `CC(C(O)c1ccc2c(c1)CCC(=O)N2)N1CCC(O)(c2cccs2)CC1` (racemic) [Compound 6, (±)-threo-6-{1-Hydroxy-2-[4-hydroxy-4-(thiophene-2-yl)piperidino]propyl}-3,4-dihydroquinolin-2(1H)-one], in assay [2], the “improvement of allodynia (pain threshold, von Frey filament) versus Solvent treated group” value is “significantly improved”. Besides, in assay [1] (setting [3]), the IC50 is 4.6 nM.

In the case of `CC(C(O)c1ccc2c(c1)CCC(=O)N2)N1CCC(O)(c2cccs2)CC1` (racemic) [Compound 7, (±)-erythro-6-{1-Hydroxy-2-[4-hydroxy-4-(thiophene-2-yl)piperidino]propyl}-3,4-dihydroquinolin-2(1H)-one], the IC50 in assay [1] (setting [3]) worked out at 5.5 nM.

In assay [1], `O=c1[nH]c2ccc(C(O)CN3CCC(O)(c4cccs4)CC3)cc2s1` (centres unmarked) [Compound 5, 6-{1-Hydroxy-2-[4-hydroxy-4-(thiophene-2-yl)-piperidino]ethyl}benzothiazol-2(3H)-one] showed an IC50 of 2.9 nM.

For `O=C1CCc2cc(C(O)CN3CCC(O)(c4cccs4)CC3)ccc2N1` (centres unmarked) [Compound 10], the “improvement of allodynia (pain threshold, von Frey filament) versus Solvent treated group” value in assay [2] is “significantly improved”. Besides, the IC50 in assay [1] (setting [3]) amounted to 5.2 nM.
